From paper PMC5908784, “Extracellular loops 2 and 3 of the calcitonin receptor selectively modify agonist binding and efficacy” (Biochemical Pharmacology, 2018)
Substitutions are numbered along the chain they refer to. Read-outs that look alike come from different tables or passages of the source. Where a SMILES comes first, the peptide text is derived from it. Bridges are numbered along the chain shown (N, C = ends).

Legend:
Experiment in all cases: IP1 accumulation
Assay type in all cases: cell-based
hCTR F359A = target: T1, hCTR F359A (Homo sapiens, UniProt P30988, F359A); conditions: for Emax: read-out: Emax (% WT), SEM
T1 construct: expressed in transfected cells
T1 sequence (P30988 25-474 F359A): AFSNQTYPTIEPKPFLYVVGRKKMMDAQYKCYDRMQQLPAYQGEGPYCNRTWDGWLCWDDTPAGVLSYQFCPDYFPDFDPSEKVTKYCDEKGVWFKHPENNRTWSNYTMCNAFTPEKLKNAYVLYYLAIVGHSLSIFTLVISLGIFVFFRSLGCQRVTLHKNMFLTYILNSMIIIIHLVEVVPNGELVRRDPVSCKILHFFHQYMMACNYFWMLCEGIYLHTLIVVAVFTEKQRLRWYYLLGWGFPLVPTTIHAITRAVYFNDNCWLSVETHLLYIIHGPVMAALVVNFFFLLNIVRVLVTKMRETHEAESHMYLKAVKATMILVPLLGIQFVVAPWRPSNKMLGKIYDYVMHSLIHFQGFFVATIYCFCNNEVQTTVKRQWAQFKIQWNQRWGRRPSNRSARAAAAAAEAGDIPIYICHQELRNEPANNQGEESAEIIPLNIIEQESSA
Method in brief: (§1)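 Ligand-induced IP1 (60 min, LiCl) measured by HTRF; normalized to 100 μM ATP response.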

hCTR H296A = target: T2, hCTR H296A (Homo sapiens, UniProt P30988, H296A); conditions: mean ± S.E.M.; for Emax: IP1 maximal response, SEM
T2 construct: c-Myc (N); expressed in transfected cells
T2 sequence (P30988 25-474 H296A): T1 sequence (P30988 25-474 F359A) with H272A, A335F
Method in brief: as §1

hCTR I279A = target: T3, hCTR I279A (Homo sapiens, UniProt P30988, I279A); conditions: mean ± S.E.M.; for Emax: IP1 maximal response, SEM
T3 construct: expressed in transfected cells
T3 sequence (P30988 25-474 I279A): T1 sequence (P30988 25-474 F359A) with I255A, A335F
Method in brief: as §1

hCTR N286A = target: T4, hCTR N286A (Homo sapiens, UniProt P30988, N286A); conditions: mean ± S.E.M.; for Emax: IP1 maximal response, SEM
T4 construct: c-Myc (N); expressed in transfected cells
T4 sequence (P30988 25-474 N286A): T1 sequence (P30988 25-474 F359A) with N262A, A335F
Method in brief: as §1

hCTR P360A = target: T5, hCTR P360A (Homo sapiens, UniProt P30988, P360A); conditions: mean ± S.E.M.; for Emax: IP1 maximal response, SEM
T5 construct: expressed in transfected cells
T5 sequence (P30988 25-474 P360A): T1 sequence (P30988 25-474 F359A) with A335F, P336A
Method in brief: as §1

[1] = IP1, CV1-FlpIn cells, 60 min, LiCl

EC50 (hCTR F359A; F359A, IP1, CV1-FlpIn cells, 60 min, LiCl, mean ± S.E.M.)	Emax (hCTR F359A; F359A, IP1 maximal response, mean ± S.E.M.)	EC50 (hCTR H296A; [1])	EC50 (hCTR I279A; [1])	EC50 (hCTR N286A; [1])	EC50 (hCTR P360A; [1])	Structure (SMILES)	Emax (hCTR F359A)	Emax (hCTR H296A)	Emax (hCTR I279A)	Emax (hCTR N286A)	Emax (hCTR P360A)
–	–	–	–	–	–	CC[C@H](C)[C@H](NC(=O)[C@H](C)NC(=O)[C@@H](NC(=O)[C@H](CCC(N)=O)NC(=O)[C@@H]1CCCN1C(=O)[C@H](Cc1ccccc1)NC(=O)[C@@H](NC(=O)[C@H](Cc1c[nH]cn1)NC(=O)[C@H](Cc1ccccc1)NC(=O)[C@H](CCCCN)NC(=O)[C@H](CC(N)=O)NC(=O)[C@H](Cc1ccccc1)NC(=O)[C@H](CC(=O)O)NC(=O)[C@H](CCC(N)=O)NC(=O)[C@@H](NC(=O)[C@H](Cc1ccc(O)cc1)NC(=O)[C@@H](NC(=O)CNC(=O)[C@H](CC(C)C)NC(=O)[C@H](CCSC)NC(=O)[C@@H]1CSSC[C@H](N)C(=O)NCC(=O)N[C@@H](CC(N)=O)C(=O)N[C@@H](CC(C)C)C(=O)N[C@@H](CO)C(=O)N[C@@H]([C@@H](C)O)C(=O)N1)[C@@H](C)O)[C@@H](C)O)[C@@H](C)O)[C@@H](C)O)C(=O)NCC(=O)N[C@H](C(=O)NCC(=O)N[C@@H](C)C(=O)N1CCC[C@H]1C(N)=O)C(C)C [hCT]	101 ± 9%	73 ± 6%	79 ± 7%	40 ± 3%	95 ± 8%
13.2 nM	77 ± 6%	4.47 nM	6.61 nM	0.562 nM	85.1 nM	CSCC[C@H](NC(=O)CNC(=O)[C@H](CO)NC(=O)[C@H](Cc1ccccc1)NC(=O)[C@H](CCCNC(=N)N)NC(=O)[C@H](Cc1c[nH]cn1)NC(=O)[C@H](Cc1ccccc1)NC(=O)[C@H](CC(N)=O)NC(=O)[C@H](CC(N)=O)NC(=O)[C@H](CC(C)C)NC(=O)[C@H](CC(N)=O)NC(=O)[C@H](CCCNC(=N)N)NC(=O)[C@H](Cc1c[nH]c2ccccc12)NC(=O)[C@H](Cc1ccc(O)cc1)NC(=O)[C@H](C)NC(=O)[C@H](CO)NC(=O)[C@H](CC(C)C)NC(=O)[C@@H](NC(=O)[C@@H]1CSSC[C@H](N)C(=O)N[C@@H](CO)C(=O)N[C@@H](CC(N)=O)C(=O)N[C@@H](CC(C)C)C(=O)N[C@@H](CO)C(=O)N[C@@H]([C@@H](C)O)C(=O)N1)C(C)C)C(=O)NCC(=O)N[C@@H](Cc1ccccc1)C(=O)NCC(=O)N1CCC[C@H]1C(=O)N[C@@H](CCC(=O)O)C(=O)N[C@H](C(=O)N1CCC[C@H]1C(N)=O)[C@@H](C)O [pCT] (H-CSNLSTCVLSAYWRNLNNFHRFSGMGFGPETP-NH2; disulfide 1-7)	–	101 ± 7%	116 ± 10%	76 ± 6%	107 ± 12%
–	–	–	–	–	–	CC(C)C[C@H](NC(=O)[C@H](CCCCN)NC(=O)CNC(=O)[C@H](CC(C)C)NC(=O)[C@@H](NC(=O)[C@@H]1CSSC[C@H](N)C(=O)N[C@@H](CO)C(=O)N[C@@H](CC(N)=O)C(=O)N[C@@H](CC(C)C)C(=O)N[C@@H](CO)C(=O)N[C@@H]([C@@H](C)O)C(=O)N1)C(C)C)C(=O)N[C@@H](CO)C(=O)N[C@@H](CCC(N)=O)C(=O)N[C@@H](CCC(=O)O)C(=O)N[C@@H](CC(C)C)C(=O)N[C@@H](Cc1c[nH]cn1)C(=O)N[C@@H](CCCCN)C(=O)N[C@@H](CC(C)C)C(=O)N[C@@H](CCC(N)=O)C(=O)N[C@H](C(=O)N[C@@H](Cc1ccc(O)cc1)C(=O)N1CCC[C@H]1C(=O)N[C@@H](CCCNC(=N)N)C(=O)N[C@H](C(=O)N[C@@H](CC(N)=O)C(=O)N[C@H](C(=O)NCC(=O)N[C@@H](CO)C(=O)NCC(=O)N[C@H](C(=O)N1CCC[C@H]1C(N)=O)[C@@H](C)O)[C@@H](C)O)[C@@H](C)O)[C@@H](C)O [sCT]	125 ± 6%	101 ± 5%	97 ± 7%	59 ± 5%	144 ± 5%
